From patent US20030130280A1, “Treatment of acute myeloid leukemia with indolinone compounds” (SUGEN, Inc., priority 2001, published 2003) come the findings set out here.

For one assay, the target named is T1, Wild-type FLT-3 (Homo sapiens, UniProt P36888).
T1 construct: host or cells: RS411 (RS4;11)
T1 sequence (P36888 27-993): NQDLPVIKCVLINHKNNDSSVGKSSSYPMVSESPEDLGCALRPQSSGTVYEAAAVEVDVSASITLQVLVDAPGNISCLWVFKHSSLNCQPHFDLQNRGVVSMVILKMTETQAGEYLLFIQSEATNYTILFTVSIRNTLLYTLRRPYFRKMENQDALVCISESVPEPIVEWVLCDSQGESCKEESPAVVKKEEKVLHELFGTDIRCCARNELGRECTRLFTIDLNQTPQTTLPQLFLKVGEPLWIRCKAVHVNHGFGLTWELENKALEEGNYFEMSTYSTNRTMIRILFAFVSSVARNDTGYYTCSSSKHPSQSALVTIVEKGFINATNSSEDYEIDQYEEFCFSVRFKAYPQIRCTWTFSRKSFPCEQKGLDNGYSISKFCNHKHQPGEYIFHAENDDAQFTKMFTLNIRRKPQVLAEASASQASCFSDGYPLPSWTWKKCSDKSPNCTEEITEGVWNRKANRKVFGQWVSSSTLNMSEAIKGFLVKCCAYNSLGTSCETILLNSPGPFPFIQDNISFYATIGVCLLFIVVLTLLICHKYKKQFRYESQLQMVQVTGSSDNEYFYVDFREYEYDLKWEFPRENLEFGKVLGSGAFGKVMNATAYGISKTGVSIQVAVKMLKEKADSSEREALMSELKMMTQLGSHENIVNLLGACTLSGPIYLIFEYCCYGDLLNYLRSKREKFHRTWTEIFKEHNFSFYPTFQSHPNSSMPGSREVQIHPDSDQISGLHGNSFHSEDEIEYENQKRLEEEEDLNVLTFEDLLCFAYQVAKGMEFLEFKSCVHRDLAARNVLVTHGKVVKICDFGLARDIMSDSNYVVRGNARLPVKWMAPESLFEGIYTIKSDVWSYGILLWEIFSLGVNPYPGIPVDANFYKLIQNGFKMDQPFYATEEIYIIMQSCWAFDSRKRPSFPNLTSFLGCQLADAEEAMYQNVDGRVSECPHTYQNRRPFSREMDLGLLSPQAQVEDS
The assay is described as follows: FLT-3 phosphorylation by immunoprecipitation/Western in RS411 cells. For Wild-type FLT-3 (inhibition of phosphorylation): key: +++: very strong inhibition; ++: inhibition; +/−: weak inhibition; −: no inhibition. The assay is classed as cell-based. The settings on record: for Wild-type FLT-3 (inhibition of phosphorylation): RS411 cells, IP/Western. Here is the method:
FLT-3 was immunoprecipitated from lysates with a commercially available antibody. Proteins were separated by SDS-polyacrylamide gel electrophoresis, transferred to membranes analyzed by Western blotting for phosphotyrosine and subsequently for total FLT-3 protein as control. […]
(§1) Immunoprecipitation and Western Blot (IP/W) analysis: Cells were lysed in lysis buffer (20 mM Tris, pH 7.5; 137 mM NaCl; 10% glycerol; 1% NP-40; 0.1% SDS; 2 mM EDTA) containing protease and phosphatase inhibitors (50 mM sodium fluoride, 1 mM sodium orthovanadate, 2 mM Pefabloc, […], […], […], 4 mM leupeptin, and 4 mM pepstatin A). Equivalent amounts of protein were separated by SDS-PAGE, then transferred to nitrocellulose membranes. For analysis of FLT3 phosphorylation, equivalent amounts of protein from each sample were immunoprecipitated overnight at 4*C. with an agarose-conjugated anti-FLT3 antibody (Santa Cruz Biotechnology, Santa Cruz, Calif.). Immune complexes were washed (150 mM NaCl, 1.5 mM MgCl2, 50 mM HEPES, pH 7.5, 10% glycerol, 0.1% Triton X-100, and 1 mM EGTA) and following SDS-PAGE, proteins were transferred to nitrocellulose membranes. Membranes were probed with an anti-phosphotyrosine antibody (Upstate, Lake Placid, N.Y. or Transduction Laboratories, Lexington, Ky.) and then stripped with Restore Western Blot Stripping Buffer (Pierce, Rockford, Ill.). Membranes were reprobed with an anti-FLT3 antibody (Santa Cruz Biotechnology). Stat5 antibodies for immunprecipitation and Western blot analysis were from Upstate Biotechnology and Transduction labs respectively.

The next assay deals with T2, Mutant FLT-3 (ITD) (Homo sapiens, UniProt P36888, INS600HVDFREYEYD).
T2 sequence (P36888 27-993 INS600HVDFREYEYD): T1 sequence (P36888 27-993)
Briefly: FLT-3 phosphorylation by immunoprecipitation/Western in MV411 cells. For Mutant FLT-3 (inhibition of phosphorylation): key: +++: very strong inhibition; ++: inhibition; +/−: weak inhibition; −: no inhibition. The format is cell-based. The settings on record: for Mutant FLT-3 (inhibition of phosphorylation): MV411 cells, IP/Western. Here is the method: FLT-3 was immunoprecipitated from lysates with a commercially available antibody. Proteins were separated by SDS-polyacrylamide gel electrophoresis, transferred to membranes analyzed by Western blotting for phosphotyrosine and subsequently for total FLT-3 protein as control.
The comparative example is a known protein kinase inhibitor having the following formula: [drawing 18]
as §1

On to `Cc1cc(CCC(=O)O)c(C=C2C(=O)Nc3ccccc32)[nH]1` [Compound 10, 3-[5-methyl-2-(2-oxo-1,2-dihydro-indol-3-ylidenemethyl)-1H-pyrrol-3-yl]-propionic acid], for which the “Wild-type FLT-3 (inhibition of phosphorylation)” value on Wild-type FLT-3 is on record as “+/−”. Besides, the “Mutant FLT-3 (inhibition of phosphorylation)” value on Mutant FLT-3 (ITD) is on record as “−”.

`Cc1[nH]c(C=C2C(=O)Nc3ccc(Cl)cc32)c(C)c1C(=O)NCC(O)CN1CCOCC1` (stereo not drawn) [Compound 7, 5-(5-Chloro-2-oxo-1,2-dihydro-indol-3-ylidenemethyl)-2,4-dimethyl-1H-pyrrole-3-carboxylic acid(2-hydroxy-3-morpholin-4-yl-propyl)-amide]: the “Wild-type FLT-3 (inhibition of phosphorylation)” value at Wild-type FLT-3 is “++”.

Regarding `Cc1[nH]c(/C=C2\C(=O)Nc3ccccc32)c(C)c1CCC(=O)O` [Comparative, reference compound], the “Wild-type FLT-3 (inhibition of phosphorylation)” value at Wild-type FLT-3 was “−”. Also, the “inhibition of wild-type FLT-3 phosphorylation” value against Wild-type FLT-3 (in words) is “no inhibition”. For the same compound, on Mutant FLT-3 (ITD), the “Mutant FLT-3 (inhibition of phosphorylation)” value is “−”. Moreover, the “inhibition of mutant FLT-3 phosphorylation” value against Mutant FLT-3 (ITD) (in words) is reported as “no inhibition”.

For the compound `Cc1[nH]c(C=C2C(=O)Nc3ccc(F)cc32)c(C)c1C(=O)NCCN1CCCC1` [Compound 2, 5-(5-Fluoro-2-oxo-1,2-dihydro-indol-3-ylidenemethyl)-2,4-dimethyl-1H-pyrrole-3-carboxylic acid(2-pyrrolidin-1-yl-ethyl)-amide], the “Wild-type FLT-3 (inhibition of phosphorylation)” value at Wild-type FLT-3 is “++”. The “Mutant FLT-3 (inhibition of phosphorylation)” value at Mutant FLT-3 (ITD) was “++”.

Regarding `CCNCCNC(=O)c1c(C)[nH]c(C=C2C(=O)Nc3ccc(F)cc32)c1C` [Compound 8, 5-(5-Fluoro-2-oxo-1,2-dihydro-indol-3-ylidenemethyl)-2,4-dimethyl-1H-pyrrole-3-carboxylic acid(2-ethylamino-ethyl)-amide], the “Wild-type FLT-3 (inhibition of phosphorylation)” value at Wild-type FLT-3 is on record as “++”.

In the case of `Cc1[nH]c(/C=C2\C(=O)Nc3ccc(F)cc32)c(C)c1C(=O)N1CCC(N2CCOCC2)CC1` [Compound 9, 3-[3,5-dimethyl-4-(4-morpholin-4-yl-piperidine-1-carbonyl)-1H-pyrrol-2-methylene]-5-fluoro-1,3-dihydro-indol-2-one], the “Wild-type FLT-3 (inhibition of phosphorylation)” value on Wild-type FLT-3 was “++”.

Turning to `Cc1[nH]c(C=C2C(=O)Nc3ccc(F)cc32)c(C)c1C(=O)NCCN1CCOCC1` [Compound 3, 5-(5-Fluoro-2-oxo-1,2-dihydro-indol-3-ylidenemethyl)-2,4-dimethyl-1H-pyrrole-3-carboxylic acid(2-morpholin-4-yl-ethyl)-amide], the “Wild-type FLT-3 (inhibition of phosphorylation)” value on Wild-type FLT-3 is listed as “+/−”.
